The text below walks through data of ChEMBL document CHEMBL1201862, “PubChem BioAssay data set” (2004).

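96-well plates; 48 h exposure; 5 concentrations. Endpoints by linear interpolation between flanking doses. Not reached: highest tested concentration assigned. At the GI50, growth is halved.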 Activity calls are given as the source filed them. No stated cut-off is given here; in the data, active = GI50 up to about 1.1 µM and inactive = higher. Bounds are passed on as bounds.

What all share (test): NCI anticancer screen, dose series, 48 h
Experiment [1] deals with MOLT-4.
For experiment [2], the system named is T47D.
Experiment [3] relates to CCRF-CEM.
Experiment [4] relates to HCT-15.
Experiment [5] has as its system HOP-62.
Experiment [6] relates to HOP-92.
Experiment [7] relates to SF-268.
Experiment [8] deals with HT-29.
Experiment [9] has as its system OVCAR-4.
For experiment [10], the system named is OVCAR-3.
Experiment [11] has as its system NCI-H226.
The test system of experiment [12] is SK-OV-3.
For experiment [13], the system named is HCT-116.
For experiment [14], the system named is SK-MEL-5.
Experiment [15] concerns SNB-75.
The subject of experiment [16] is SK-MEL-2.
The test system of experiment [17] is DU-145.
For experiment [18], the system named is BT-549.
The subject of experiment [19] is SK-MEL-28.
For experiment [20], the system named is NCI-H23.

As to `CCOP(=O)(OCC)/C(C#N)=C\c1cccc2ccccc12`, the GI50 in experiment [1] is 35.4 µM (inactive); in experiment [2], 26.8 µM (inactive); in experiment [3], 30.1 µM (inactive); in experiment [4] it was 42.7 µM; in experiment [5], > 56.6 µM (inactive); in experiment [6] it was 23 µM (inactive). In addition, the GI50 was 21.4 µM (inactive) in [7]; > 66.1 µM (inactive) in [8]; > 75.3 µM (inactive) in experiment [9]; > 55.7 µM (inactive) in experiment [10]; 32.4 µM (inactive) in experiment [11]; 45.5 µM (inactive) in experiment [12]. The GI50 in experiment [13] is 46 µM (inactive); in experiment [14] it was 39.5 µM (inactive); in experiment [15], 22.4 µM (inactive); in experiment [16] it was > 62.1 µM (inactive); in experiment [17], 57.9 µM (inactive); in experiment [18], 51.9 µM (inactive). Further, the figures for the GI50 in experiment [19] and in experiment [20] were 28.2 µM (inactive) and 78.3 µM (inactive), respectively.
Turning to `Oc1c2ccccc2c2c3c(cccc13)N=N2` [SP-600125], the GI50 is 20.4 µM (inactive) in experiment [1]; > 100 µM (inactive) in experiment [2]; 16.1 µM (inactive) in experiment [3]; 8.04 µM in [4]; 69.3 µM (inactive) in [5]; 37.6 µM (inactive) in experiment [6]. Moreover, the GI50 in experiment [7] was 18.5 µM (inactive); in [8], 25.9 µM (inactive); in [9], 31.9 µM (inactive); in experiment [10], 15.3 µM (inactive); in experiment [11], 22.9 µM (inactive); in experiment [12], 21 µM (inactive). The GI50 in [13] was 44.6 µM (inactive); in [14], 14.6 µM (inactive); in [15] it was 16.9 µM (inactive); in [16] it was 29 µM (inactive); in [17], 28.2 µM (inactive); in [18] it was 30.8 µM (inactive). The values for the GI50 in experiment [19] and in experiment [20] were 37.6 µM (inactive) and 23.8 µM (inactive), respectively.
Regarding `CCOC(=O)CC[C@H](NC(=O)[C@H](N)Cc1ccc(N(CCCl)CCCl)cc1)C(=O)OCC`, the GI50 in experiment [1] is 0.386 µM (active); in experiment [2], 8.07 µM (inactive); in [3], 1.14 µM (inactive); in [4], 18.1 µM; in [5], 21.6 µM (inactive); in experiment [6], 3.64 µM (inactive). In addition, the GI50 in experiment [7] is 1.43 µM (inactive); in experiment [8], 36.1 µM (inactive); in experiment [9], 13.1 µM (inactive); in [10], 8.28 µM (inactive); in experiment [11], > 34.7 µM (inactive); in [12], 36.3 µM (inactive). Moreover, the GI50 in experiment [13] was 22.2 µM (inactive); in experiment [14], 10.4 µM (inactive); in [15], 12 µM (inactive); in experiment [16], 29.4 µM (inactive); in [17], 13.2 µM (inactive); in [18] it was 26.2 µM (inactive). For the same compound, the GI50 is 21.6 µM (inactive) in experiment [19] and 3.08 µM (inactive) in [20].
`CC(C)(C)c1cc(/C=C2/NC(=O)NC2=O)cc(C(C)(C)C)c1O`: the GI50 was 17.1 µM (inactive) in experiment [1]; 2.91 µM (inactive) in [2]; 11.9 µM (inactive) in [3]; 13.2 µM in [4]; 17.1 µM (inactive) in experiment [5]; 14.2 µM (inactive) in [6]. The GI50 was 14.3 µM (inactive) in experiment [7]; 11.7 µM (inactive) in [8]; 11.4 µM (inactive) in experiment [9]; 14.2 µM (inactive) in experiment [10]; 14.8 µM (inactive) in [11]; 16.8 µM (inactive) in experiment [12]. Moreover, the GI50 in experiment [13] was 14.1 µM (inactive); in experiment [14] it was 13.7 µM (inactive); in experiment [15], 12.3 µM (inactive); in experiment [16], 13.8 µM (inactive); in experiment [17] it was 15.6 µM (inactive); in experiment [18], 13.7 µM (inactive). Moreover, the GI50 was 17.5 µM (inactive) in experiment [19] and 15 µM (inactive) in [20].
Turning to `C/C(=N\NC(=S)Nc1ccccc1)c1nc2cccnc2[nH]1`, the GI50 was 0.706 µM (active) in experiment [1]; 0.193 µM (active) in experiment [2]; 0.389 µM (active) in experiment [3]; 2.66 µM in experiment [4]; 8.47 µM (inactive) in experiment [5]; 12.9 µM (inactive) in experiment [6]. In addition, the GI50 in experiment [7] was 0.583 µM (active); in [8], 0.826 µM (active); in [9], 0.927 µM (active); in [10], 0.456 µM (active); in [11], 2.59 µM (inactive); in [12] it was 5.36 µM (inactive). In addition, the GI50 was 1.63 µM (inactive) in experiment [13]; 2.69 µM (inactive) in experiment [14]; 12.2 µM (inactive) in [15]; 16.9 µM (inactive) in [16]; 2.84 µM (inactive) in experiment [17]; 5.26 µM (inactive) in experiment [18]. In addition, the values for the GI50 in experiment [19] and in experiment [20] were 0.706 µM (active) and 9.53 µM (inactive), respectively.
In the case of `COc1ccc(/N=N/C(=O)NC(CC(C)C)C(N)=O)cc1` (stereo not given), the GI50 in [1] was 7.74 µM (inactive); in experiment [2], 12.2 µM (inactive); in [3], > 27.7 µM (inactive); in [4], more than 24.4 µM; in experiment [5], > 100 µM (inactive); in experiment [6], > 31.6 µM (inactive). The GI50 in experiment [7] is > 100 µM (inactive); in experiment [8] it was > 100 µM (inactive); in [9], > 31.6 µM (inactive); in [10], > 50 µM (inactive); in [11], > 94.4 µM (inactive); in experiment [12], > 100 µM (inactive). Besides, the GI50 was > 31.6 µM (inactive) in experiment [13]; > 62.4 µM (inactive) in [14]; > 100 µM (inactive) in experiment [15]; > 100 µM (inactive) in experiment [16]; 49.1 µM (inactive) in experiment [17]; 47.1 µM (inactive) in [18]. In addition, the GI50 was > 69 µM (inactive) in [19] and > 100 µM (inactive) in experiment [20].
On to `O=C(/C=C/c1ccc(OCCSCCCCCCCCCCSCCOc2ccc(/C=C/C(=O)c3ccc(Cl)cc3)cc2)cc1)c1ccc(Cl)cc1`, for which the GI50 in experiment [1] was > 100 µM (inactive); in experiment [2], > 100 µM (inactive); in experiment [3], > 100 µM (inactive); in experiment [4] it was more than 100 µM; in [5] it was 51.2 µM (inactive); in experiment [6], 47.4 µM (inactive). In addition, the GI50 in [7] is 76 µM (inactive); in experiment [8] it was > 100 µM (inactive); in [9], > 100 µM (inactive); in [10], > 100 µM (inactive); in [11], > 76.2 µM (inactive); in experiment [12] it was 65.5 µM (inactive). In addition, the GI50 in experiment [13] is > 100 µM (inactive); in experiment [14] it was > 100 µM (inactive); in experiment [15] it was 30.8 µM (inactive); in experiment [16], 61.8 µM (inactive); in experiment [17], > 100 µM (inactive); in experiment [18], > 100 µM (inactive). In addition, the figures for the GI50 in experiment [19] and in experiment [20] were > 100 µM (inactive) and > 94.6 µM (inactive), respectively.
